# Laboratory results as given in patent US20110039763A1, “TARGETED ANTIMICROBIAL MOIETIES” (C3 JIAN, INC., priority 2009, published 2011).
# Entries after “also recorded” stand apart in the source; their conditions may differ.
# Tested on: microorganisms
# Assay: Targeting peptide binding to target microorganisms (Tables 3, 10, 12)
# Conditions: data not shown
row,Substance,bacterial binding
1,DAANEA-GGG [BL-1],no bacterial binding

# Same assay, conditions: microorganism(s) the targeting peptide binds; binding in aqueous buffers that varied with peptide solubility, preferably 1x PBS
row,Substance,Target(s)
1,1T-218 (KLIFAALGLVFLLIGLRDSRSK; Peptide with targeting and/or antimicrobial activity),F. nucleatum; also recorded: S. sanguinis
2,TT-309 (EPLPLTKYDKKDTEMKKVFKEILAGKVGYEKEEE; Peptide with targeting and/or antimicrobial activity),F. nucleatum
3,1T-201 (KRKHENVIVAEEMRVIKN; Peptide with targeting and/or antimicrobial activity),S. sanguinis
4,PF-016 (RKQYDDLSFNFLY; Peptide with targeting and/or antimicrobial activity),S. epidermidis; also recorded: E. faecalis; also recorded: C. jeikeium
5,1T-237 (EDPVPNHFTLRRNKKEKPSKS; Peptide with targeting and/or antimicrobial activity),S. sanguinis
6,1T-219 (RNINVSATFITEKSLV; Peptide with targeting and/or antimicrobial activity),S. sanguinis
7,TT-305 (ARNALNMRDVPVDAAIIGIIDGMDEE; Peptide with targeting and/or antimicrobial activity),F. nucleatum
8,1T-216 (FFLNVIAIRIPHF; Peptide with targeting and/or antimicrobial activity),S. sanguinis

# Same assay, conditions: microorganism(s) the targeting peptide binds; binding in aqueous buffers varied with peptide solubility, preferably 1x PBS
row,Substance,Target(s)
1,PF-265 (MKTLFFPLFLIIFVLIIQALDQSYQKKIGISKPQKHPEFMQ; Peptide with targeting and/or antimicrobial activity),S. epidermidis; also recorded: M. luteus; also recorded: A. baumannii
2,PF-705 (GEEEGTVAD; Peptide with targeting and/or antimicrobial activity),S. mutans; also recorded: E. coli
3,PF-248 (ILSKLWFWMINSLGVVLLVSYWLLAKWGVA; Peptide with targeting and/or antimicrobial activity),S. mutans; also recorded: S. epidermidis; also recorded: M. luteus; also recorded: E. coli; also recorded: P. aeruginosa; also recorded: A. baumannii
4,PF-262 (DPHSEIDVTRYCQLHHFTCQTMQISEREFHYLIETQ; Peptide with targeting and/or antimicrobial activity),S. mutans; also recorded: S. epidermidis; also recorded: M. luteus; also recorded: E. coli; also recorded: P. aeruginosa; also recorded: A. baumannii
5,PF-223 (VKFCIECQTKLERKRR; Peptide with targeting and/or antimicrobial activity),S. epidermidis; also recorded: M. luteus; also recorded: A. baumannii
6,PF-325 (LTIDEKLRNHR; Peptide with targeting and/or antimicrobial activity),S. mutans; also recorded: E. coli
7,PF-134 (GKAMKRQDCSAL; Peptide with targeting and/or antimicrobial activity),S. epidermidis; also recorded: C. jeikeium
8,PF-200 (GIELKSLIMAQIERWRQA; Peptide with targeting and/or antimicrobial activity),S. epidermidis and M. luteus and MRSA and E. faecalis and C. jeikeium
9,PF-712 (QIYRHVHKVQAKSANLRLY; Peptide with targeting and/or antimicrobial activity),S. mutans; also recorded: E. coli
10,PF-216 (ESVDKITEALEEDGFPAKVQ; Peptide with targeting and/or antimicrobial activity),S. mutans; also recorded: E. coli
11,PF-787 (MTERQRRALLKQHPEVVSWSDYLEKRKRRTGTAG; Peptide with targeting and/or antimicrobial activity),Mycobacteria spp.
12,PF-155 (GRYGDDSKERQGRAQ; Peptide with targeting and/or antimicrobial activity),C. jeikeium
13,PF-158 (VRLESRPADLPE; Peptide with targeting and/or antimicrobial activity),S. epidermidis
14,PF-641 (SWKCHHLAIGGSWKCHHLAI; Peptide with targeting and/or antimicrobial activity),S. epidermidis and M. luteus and E. coli and C. albicans and MRSA and E. faecalis and C. jeikeium and C. jejuni
15,PF-798 (ALHSKGIKVMADWVPDQMYA; Peptide with targeting and/or antimicrobial activity),S. mutans
16,PF-679 (CRARFIRR; Peptide with targeting and/or antimicrobial activity),S. mutans; also recorded: E. coli

row,Substance,Target(s)
1,HIKETR (Peptide with targeting and/or antimicrobial activity) [PF-222],S. epidermidis
2,PF-791 (IFLTTQNTDYSEHNAA; Peptide with targeting and/or antimicrobial activity),S. mutans
3,PF-507 (LALSIANLFKKKA; Peptide with targeting and/or antimicrobial activity),S. mutans; also recorded: E. coli
4,PF-724 (CYRFLTPKRPTRIS; Peptide with targeting and/or antimicrobial activity),L. pneumophila
5,PF-183 (KPGISVENRQ; Peptide with targeting and/or antimicrobial activity),S. epidermidis and M. luteus and E. coli and C. albicans and MRSA and E. faecalis and C. jeikeium
6,PF-799 (YTHYNTALSYALLLTNKSSVP; Peptide with targeting and/or antimicrobial activity),S. mutans
7,PF-766 (DAYYAQLRKQKEIEEGA; Peptide with targeting and/or antimicrobial activity),S. epidermidis and M. luteus and C. albicans and MRSA and E. faecalis and C. jeikeium
8,PF-169 (APGSAADSPRSRADD; Peptide with targeting and/or antimicrobial activity),S. epidermidis; also recorded: E. coli; also recorded: C. albicans; also recorded: E. faecalis; also recorded: C. jeikeium
9,PF-496 (EVTKRLVALAQQQLRG; Peptide with targeting and/or antimicrobial activity),S. mutans; also recorded: E. coli
10,PF-503 (VVTLKDIVAVIEDQGYDVQ; Peptide with targeting and/or antimicrobial activity),S. mutans
11,PF-279 (SHIGFISISACLAVLLGIARLFVWTWVKFFA; Peptide with targeting and/or antimicrobial activity),S. mutans; also recorded: S. epidermidis; also recorded: M. luteus; also recorded: E. coli; also recorded: P. aeruginosa; also recorded: A. baumannii
12,PF-163 (TSWLRAAERQEIGEPTKTFGEKTTSL; Peptide with targeting and/or antimicrobial activity),S. epidermidis
13,PF-324 (HFSLL; Peptide with targeting and/or antimicrobial activity),C. difficile
14,PF-782 (TGPRRGIDLTSNRALSEVLDEGLELNSRK; Peptide with targeting and/or antimicrobial activity),Mycobacteria spp.
15,PF-218 (SETPEKPVGTFFYSIYYKIIL; Peptide with targeting and/or antimicrobial activity),S. epidermidis; also recorded: M. luteus; also recorded: P. aeruginosa; also recorded: A. baumannii

# Same assay, conditions: peptide binding in aqueous buffers that varied with peptide solubility; preferably 1x PBS
row,Substance,Target(s) (microorganism bound by the targeting peptide)
1,1T-93 (AMRSVNQA; Peptide with targeting and/or antimicrobial activity),S. epidermidis; also recorded: S. gordonii; also recorded: S. mitis; also recorded: S. mutans; also recorded: S. oralis; also recorded: S. sanguinis
2,1T-32 (VSFLAGWLCLGLAAWRLGNA; Peptide with targeting and/or antimicrobial activity),S. mutans
3,1T-25 (VGLDVSVLVLFFGLQLLSVLLGAMIR; Peptide with targeting and/or antimicrobial activity),S. aureus; also recorded: S. epidermidis; also recorded: C. xerosis; also recorded: C. striatum; also recorded: P. aeruginosa
4,1T-159 (IFSLHHFALICSEMGTFAVSKRAKYKWEVL; Peptide with targeting and/or antimicrobial activity),P. gingivalis
5,1T-139 (AVAGAAVGALLGNDARSTAVGAAIGGALGAGAGELTKNK; Peptide with targeting and/or antimicrobial activity),A. naeslundii; also recorded: S. gordonii; also recorded: S. mitis; also recorded: S. mutans; also recorded: S. oralis
6,1T-66 (DTDCLSRAYAQRIDELDKQYAGIDKPL; Peptide with targeting and/or antimicrobial activity),S. mutans; also recorded: S. aureus; also recorded: S. epidermidis; also recorded: C. jeikeium; also recorded: C. xerosis; also recorded: C. striatum; also recorded: P. aeruginosa
7,1T-71 (KIDTNQWPPNKEG; Peptide with targeting and/or antimicrobial activity),P. aeruginosa
8,1T-28 (VSRDEAMEFIDREWTTLQPAGKSHA; Peptide with targeting and/or antimicrobial activity),P. aeruginosa
9,1T-81 (AIATGLDIVDGKFDGYLWA; Peptide with targeting and/or antimicrobial activity),S. pneumoniae
10,1T-91 (TSVRPGAAGAAVPAGAAGAAGAGWRWP; Peptide with targeting and/or antimicrobial activity),S. mitis; also recorded: S. mutans; also recorded: S. oralis; also recorded: S. sanguinis
11,1T-123 (LVRRNAVAGRSDGLAGAEQLDLVRLQGVL; Peptide with targeting and/or antimicrobial activity),S. gordonii
12,1T-24 (EEAEEKLAEVSQAVKRLVR; Peptide with targeting and/or antimicrobial activity),P. aeruginosa
